molecular target: CRBN truncate (318-426) (Homo sapiens (Human), UniProt Q96SW2); test: Measurement of molecular interactions using surface plasmon resonance (SPR), Biacore T200; type: binding; conditions: 25° C., immobilized CRBN truncate, upper limit of measurement 200 μM
Outline: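 C-terminally Avi-tagged CRBN (318-426) captured on a streptavidin SA chip on a Biacore T200. Running buffer 10 mM HEPES pH 7.5, 150 mM NaCl, 1 mM TCEP, 0.005% Tween 20, 2% DMSO; 60 s contact, 120 s dissociation.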

Sequence of CRBN truncate (318-426) (Q96SW2 318-426): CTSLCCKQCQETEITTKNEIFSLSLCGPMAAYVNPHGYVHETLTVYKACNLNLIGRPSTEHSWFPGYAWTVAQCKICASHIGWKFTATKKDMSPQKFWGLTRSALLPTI

`CC(C)(C)OC(=O)NCCCCCCc1ccc(-c2cn(C3CCCC(=O)NC3=O)nn2)cc1` (stereo not shown) [Example 150, tert-Butyl N-[6-[4-[1-(2,7-dioxoazepan-3-yl)triazol-4-yl]phenyl]hexyl]carbamate] and `CC(C)(C)OC(=O)NCCCCCCc1ccc(C(=O)N2CCC3(CCCC(=O)NC3=O)C2)cc1Cl` (stereo not shown) [Example 160, tert-Butyl N-[6-[2-chloro-4-(6,8-dioxo-2,7-diazaspiro[4.6]undecane-2-carbonyl)phenyl]hexyl]carbamate] cannot be ordered by Kd: at least 100 µM for the first, 50 to 100 µM for the second.

`Cn1ccc2c(C(=O)N3CCC4(CCCC(=O)NC4=O)C3)cccc21` (stereo not shown) [Example 151, 2-(1-Methylindole-4-carbonyl)-2,7-diazaspiro [4.6]undecane-6,8-dione] and `O=C1CCCC2(CCN(C(=O)c3cnn4ccccc34)C2)C(=O)N1` (stereo not shown) [Example 153, 2-(Pyrazolo[1,5-a]pyridine-3-carbonyl)-2,7-diazaspiro[4.6]undecane-6,8-dione] cannot be ordered by Kd: at least 100 µM for the first, at least 100 µM for the second.

`O=C1CCCC2(CCN(C(=O)c3ccc4scnc4c3)C2)C(=O)N1` (stereo not shown) [Example 152, 2-(1,3-Benzothiazole-5-carbonyl)-2,7-diazaspiro[4.6]undecane-6,8-dione] and `Nc1ccc(C(=O)N2CCC3(CCCC(=O)NC3=O)C2)cc1` (stereo not shown) [Example 155, 2-(4-Aminobenzoyl)-2,7-diazaspiro[4.6]undecane-6,8-dione] cannot be ordered by Kd: at least 100 µM for the first, at least 100 µM for the second.

`O=C1CCCC2(CCN(C(=O)c3nc4ccccc4o3)C2)C(=O)N1` (stereo not shown) [Example 154, 2-(1,3-Benzoxazole-2-carbonyl)-2,7-diazaspiro[4.6]undecane-6,8-dione] and `Cc1ccc(NC(=O)NCc2ccccc2C(=O)N2CCC3(CCCC(=O)NC3=O)C2)cc1Cl` (stereo not shown) [Example 156, 1-(3-Chloro-4-methylphenyl)-3-[[2-(6,8-dioxo-2,7-diazaspiro[4.6]undecane-2-carbonyl)phenyl]methyl]urea] cannot be ordered by Kd: at least 100 µM for the first, at least 100 µM for the second.

Compared with `Cc1ccc(NC(=O)NCc2ccc(C(=O)N3CCC4(CCCC(=O)NC4=O)C3)cc2)cc1Cl` (stereo not shown) [Example 157, 1-(3-Chloro-4-methylphenyl)-3-[[4-(6,8-dioxo-2,7-diazaspiro[4.6]undecane-2-carbonyl)phenyl]methyl]urea], `CC(C)(C)OC(=O)NCCCCCCc1cccc(C(=O)N2CCC3(CCCC(=O)NC3=O)C2)c1` (stereo not shown) [Example 158, tert-Butyl N-[6-[3-(6,8-dioxo-2,7-diazaspiro[4.6]undecane-2-carbonyl)phenyl]hexyl]carbamate] is higher in Kd: under 50 µM for the first, 50 to 100 µM for the second. The first binds more tightly here.

`CC(C)(C)OC(=O)NCCCCCCc1ccccc1C(=O)N1CCC2(CCCC(=O)NC2=O)C1` (stereo not shown) [Example 159, tert-ButylN-[6-[2-(6,8-dioxo-2,7-diazaspiro[4.6]undecane-2-carbonyl)phenyl]hexyl]carbamate] and `CC(C)(C)OC(=O)NCCCCCCc1cccc2c(C(=O)N3CCC4(CCCC(=O)NC4=O)C3)cccc12` (stereo not shown) [Example 161, tert-Butyl N-[6-[5-(6,8-dioxo-2,7-diazaspiro[4.6]undecane-2-carbonyl)naphthalen-1-yl]hexyl]carbamate] cannot be ordered by Kd: at least 100 µM for the first, 50 to 100 µM for the second.

Compared with `CC(C)(C)OC(=O)NCCCCCCn1ccc2c(C(=O)N3CCC4(CCCC(=O)NC4=O)C3)cccc21` (stereo not shown) [Example 162, tert-Butyl N-[6-[4-(6,8-dioxo-2,7-diazaspiro [4.6]undecane-2-carbonyl)indol-1-yl]hexyl]carbamate], `CC(C)(C)OC(=O)N1CCC(c2cnc(N3CCC4(CCCC(=O)NC4=O)C3)nc2)CC1` (stereo not shown) [Example 168-2, tert-Butyl 4-[2-(6,8-dioxo-2,7-diazaspiro [4.6]undecan-2-yl)pyrimidin-5-yl]piperidine-1-carboxylate] is lower in Kd: 50 to 100 µM for the first, under 50 µM for the second. The second binds more tightly here.

`O=C1NC(=O)C2(Nc3cccc(Br)c3)CCC1CC2` [Example 165, 1-(3-Bromoanilino)-3-azabicyclo [3.2.2]nonane-2,4-dione] and `O=C1NC(=O)C2(c3ccc(Br)cc3)CCC1CC2` [Example 167, 1-(4-Bromophenyl)-3-azabicyclo [3.2.2]nonane-2,4-dione] cannot be ordered by Kd: at least 100 µM for the first, at least 100 µM for the second.

— US20250388593A1 (MITSUBISHI TANABE PHARMA CORPORATION, priority 2023, published 2025)
